Assay results: patent US9029345B2, “Selective inhibitors of translesion DNA replication” (Case Western Reserve University, priority 2005, dated 2015)

Columns and labels:
control Sf9 membranes = experiment: ATPase activity of control Sf9 membranes; assay type: biochemical
Protocol: (§1) The in vitro activity of the triphosphate of 5-CHInd (5-CHITP) against P-gp was evaluated through its ability to inhibit vinblastine-stimulated ATP hydrolysis. These experiments used purified P-gp membranes expressed and isolated in Sf9 insect cells (BD Biosciences). ATP hydrolysis was quantified by the amount of ^32Pi release from γ^32P-ATP as a function of time. Reactions containing vinblastine were initiated by the addition of membranes and quenched in trichloroacetic acid and ammonium heptamolybdate. Heptamolybdophosphoric acid was separated by organic phase extraction and the presence of ^32Pi was quantified by liquid scintillation counting. […] The inhibition of 5-CHITP is selective for P-gp as the ATPase activity of control Sf9 membranes is not inhibited whereas sodium orthovanadate inhibits by about 50%.

P-gp [1] = target: T1, P-gp (Homo sapiens, UniProt P08183); experiment: vinblastine-stimulated ATP hydrolysis by purified P-gp membranes (32Pi release); assay type: biochemical; parameters: endogenous in cells
T1 sequence (P08183 whole entry): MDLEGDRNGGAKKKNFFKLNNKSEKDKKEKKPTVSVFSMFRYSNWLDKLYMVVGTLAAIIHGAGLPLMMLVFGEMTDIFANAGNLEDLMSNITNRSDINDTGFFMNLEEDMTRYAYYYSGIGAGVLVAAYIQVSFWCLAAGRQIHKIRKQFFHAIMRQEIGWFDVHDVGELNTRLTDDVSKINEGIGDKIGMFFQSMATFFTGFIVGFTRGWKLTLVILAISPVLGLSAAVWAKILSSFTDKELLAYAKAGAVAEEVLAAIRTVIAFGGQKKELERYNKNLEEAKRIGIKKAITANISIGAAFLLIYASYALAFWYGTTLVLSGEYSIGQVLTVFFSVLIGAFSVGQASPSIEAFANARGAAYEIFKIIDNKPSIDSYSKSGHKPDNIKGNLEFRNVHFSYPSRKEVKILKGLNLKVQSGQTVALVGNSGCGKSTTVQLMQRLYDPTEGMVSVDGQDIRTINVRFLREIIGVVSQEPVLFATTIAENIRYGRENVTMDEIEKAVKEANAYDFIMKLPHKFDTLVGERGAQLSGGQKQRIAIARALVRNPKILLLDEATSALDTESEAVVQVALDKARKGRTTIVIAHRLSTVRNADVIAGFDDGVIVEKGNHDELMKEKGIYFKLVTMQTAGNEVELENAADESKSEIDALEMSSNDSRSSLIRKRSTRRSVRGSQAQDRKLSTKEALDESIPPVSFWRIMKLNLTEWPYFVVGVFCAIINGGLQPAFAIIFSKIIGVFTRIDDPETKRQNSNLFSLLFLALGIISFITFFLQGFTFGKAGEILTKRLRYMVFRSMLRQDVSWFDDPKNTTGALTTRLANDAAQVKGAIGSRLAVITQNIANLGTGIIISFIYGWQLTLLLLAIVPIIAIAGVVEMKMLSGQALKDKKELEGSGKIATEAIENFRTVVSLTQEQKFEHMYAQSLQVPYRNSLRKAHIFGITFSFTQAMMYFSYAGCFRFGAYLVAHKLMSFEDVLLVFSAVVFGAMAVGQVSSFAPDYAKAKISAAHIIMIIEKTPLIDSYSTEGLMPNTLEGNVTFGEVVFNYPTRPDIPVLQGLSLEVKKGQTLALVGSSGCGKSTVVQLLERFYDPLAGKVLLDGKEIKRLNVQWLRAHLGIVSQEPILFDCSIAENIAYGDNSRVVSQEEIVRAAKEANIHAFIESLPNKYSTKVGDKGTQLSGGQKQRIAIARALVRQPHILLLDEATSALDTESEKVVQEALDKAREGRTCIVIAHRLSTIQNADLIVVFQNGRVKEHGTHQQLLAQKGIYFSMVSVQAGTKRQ
Protocol: as §1

SKOV3 cells = experiment: potentiation of vinblastine in SKOV3 cells; assay type: cell-based; conditions: 25 or 50 μg/ml 5-CHInd with 0.5 or 1 μg/ml vinblastine
Protocol: (§2) The potentiation of vinblstine by 5-CHInd was also assessed in MDR negative cesll (SKOV3) and MDR positive SKOV/VBL cells by administering various concentrations of vinblastine and 5-CHInd to the cells. FIG. 6 is a graph illustrating the cytoxic effect of 25 μg/ml of 5-CHInd (CH25), 50 μg/ml of 5-CHInd (CH50), 0.5 μg/ml of vinblastine (VinB 0.5), 1 μg/ml of vinblastine (VinB 1), 25 μg/ml of 5-CHInd in combination with 0.5 μg/ml of vinblastine (CH25+VinB 0.5), 25 μg/ml of 5-CHInd in combination with 1 μg/ml of vinblastine (CH25+VinB 1), 50 μg/ml of 5-CHInd in combination with 0.5 μg/ml of vinblastine (CH50+VinB 0.5), and 50 μg/ml of 5-CHInd in combination with 1 μg/ml of vinblastine (CH50+VinB 1) administered respectively to SKOV3 and SKOV/VBL cells.

SKOV/VBL cells = experiment: potentiation of vinblastine in SKOV/VBL cells; assay type: cell-based; conditions: 25 or 50 μg/ml 5-CHInd with 0.5 or 1 μg/ml vinblastine
Protocol: as §2

CDKs = experiment: flow cytometry, cell cycle; assay type: cell-based; conditions: preliminary flow cytometry data
P-gp [2] = target: T1, P-gp
P-gp [3] = target: T1, P-gp; experiment: intracellular [3H]-vinblastine accumulation and efflux in CEM-VBL cells; assay type: cell-based; parameters: endogenous in cells
Protocol: Intracellular drug accumulation studies use confluent CEM-C7 and CEM-VBL cells incubated with [^3H]-vinblastine (Moravek Biochemicals, Brea, Calif.) in the absence or presence of 5-CHInd. After attainment of equilibrium, cells are harvested and washed to remove any unbound [^3H]-vinblastine. Washed cells are then solubized and the retained radioactivity is quantified by liquid scintillation techniques. Measured radioactivity is normalized for protein content, and drug accumulation is expressed as a percentage of the vehicle control.
To measure the effect of 5-CHInd on the efflux of [^3H]-vinblastine, CEM-VBL cells are incubated with a sub-lethal dose of 5-CHInd or vehicle (DMSO) followed by the addition of a fixed concentration of [^3H]-vinblastine. After attainment of equilibrium, cells are washed and aliquots are analyzed for [^3H]-vinblastine accumulation at variable times (5 to 120 minutes). The efflux rate constant is obtained from a fit of the data to y=Ae^−kt where y is the amount of radioactivity at time t, A is maximal amplitude in accumulation, k is the efflux rate constant, and t is time.

P-glycoprotein [4] = target: T2, P-glycoprotein (Homo sapiens, UniProt P08183); experiment: NIMH Psychoactive Drug Screening Program (PDSP) screen; conditions: first determined using PDSP
T2 construct: endogenous in cells; host or cells: CEM/VBL (CEM-VBL) leukemia cells
T2 sequence (P08183 whole entry): as above
From the text: (§3) This was first determined using the NIMH Psychoactive Drug Screening Program (PDSP) which performs pharmacological and functional screens of novel compounds. This initial screening effort lead us to test the ability of 5-CHInd to block the export of Hoechst dye, a known substrate for P-gp. Control experiments verify that CEM cells not overexpressing p-glycoprotein show accumulation of the Hoechst dye as indicated by nuclear staining (FIG. 3A).

CEM-C7 cells = experiment: intracellular [3H]-vinblastine accumulation and efflux in CEM-C7 cells; assay type: cell-based; conditions: devoid of P-gp
P-glycoprotein [5] = target: T2, P-glycoprotein; experiment: export of Hoechst dye from CEM/VBL cells overexpressing P-gp; assay type: cell-based; conditions: sub-lethal concentration, compared to untreated CEM/VBL
From the text: as §3

P-gp [6] = target: T1, P-gp; experiment: control experiments: potentiation of other chemotherapeutic agents; conditions: does not inhibit P-gp

O=P(O)(O)OP(=O)(O)OP(=O)(O)OC[C@H]1O[C@@H](n2ccc3cc(C4CCCCC4)ccc32)C[C@@H]1O [5-CHITP]
inhibition of ATPase activity of control Sf9 membranes (control Sf9 membranes; 5-CHITP): not inhibited
inhibition of ATPase activity of P-gp (P-gp [1]; 50 μM): 52%

OC[C@H]1OC(n2ccc3cc(C4CCCCC4)ccc32)C[C@@H]1O (some centres unmarked) [5-CHInd, 5-cylclohexyl-1-indolyl-2-deoxyriboside]
potentiation of vinblastine (FIG. 6) (SKOV3 cells): potentiation of vinblastine
potentiation of vinblastine (FIG. 6) (SKOV/VBL cells): potentiation of vinblastine
cell cycle arrest (CDKs): induces cell cycle arrest
potentiation of the effects of 5-fluorouracil (P-gp [2]): does not potentiate
potentiation of the effects of cisplatin (P-gp [2]): does not potentiate
potentiation of the effects of doxorobucin (P-gp [2]): potentiates
potentiation of the effects of paclitaxel (P-gp [2]): potentiates
accumulation of [3H]-vinblastine (P-gp [3]): significant accumulation
rate constant for drug efflux (P-gp [3]; compared to vehicle-treated cells): decrease in rate constant for drug efflux
inhibition of p-glycoprotein activity (P-glycoprotein [4]): can inhibit the activity of p-glycoprotein
effect on accumulation or efflux of [3H]-vinblastine (CEM-C7 cells): no effect
accumulation of Hoechst dye (inhibition of P-gp export) (P-glycoprotein [5]): enhanced accumulation of the Hoechst dye
LD50 (leukemia cell lines): about 20 μg/mL
cytotoxic effect (flow cytometry, FIG. 2) (leukemia cell lines; leukemia cells, closely mimics staurosporine): rapid cytotoxic effect

OC[C@H]1OC(n2ccc3cc(-c4ccccc4)ccc32)C[C@@H]1O (some centres unmarked) [5-PhInd]
cell death (leukemia cell lines; at the concentrations tested, data not shown): cause cell death

[Na+].[Na+].[Na+].[O]=[V]([O-])([O-])[O-] [sodium orthovanadate, reference compound]
inhibition of ATPase activity of control Sf9 membranes (control Sf9 membranes; sodium orthovanadate): about 50%
inhibition of ATPase activity of P-gp (P-gp [1]; 1 μM, compared with 52% by 50 μM 5-CHITP): comparable

CN[C@@H]1C[C@H]2O[C@@](C)([C@@H]1OC)n1c3ccccc3c3c4c(c5c6ccccc6n2c5c31)C(=O)NC4 [staurosporine]
action as potentiating agent (P-gp [6]): does not act as a potentiating agent
